Data from patent US20180000085A1, “USE OF PICOLINAMIDE COMPOUNDS WITH FUNGICIDAL ACTIVITY” (DOW AGROSCIENCES LLC, priority 2014, published 2018).

Legend:
Assay type in all cases: in vivo
Puccinia triticina = assay: Wheat brown rust (PUCCRT) disease control on wheat seedlings; details: low volume application, 125.1 g/H; for PUCCRT 1DP, LV activity at 125.1 g/H (% Control rating): 1 Day Protectant; for PUCCRT 3DC, LV activity at 125.1 g/H (% Control rating): 3 Day Curative; for PUCCRT 1DP disease control rating, LV activity at 125.1 g/H: 1 day protectant; for PUCCRT 3DC disease control rating, LV activity at 125.1 g/H: 3 day curative
Leptosphaeria nodorum = assay: Wheat glume blotch (LEPTNO) disease control; details: 100 ppm, 1 Day Protectant
Protocol: All fungicides were evaluated using the aforementioned method for their activity vs. all target diseases, unless stated otherwise. Wheat leaf blotch and brown rust activity were also evaluated using track spray applications, in which case the fungicides were formulated as EC formulations, containing 0.1% Trycol 5941 in the spray solutions. Wheat plants (variety Yuma) were grown from seed in a greenhouse in 50% mineral soil/50% soil-less Metro mix until the first leaf was fully emerged, with 7-10 seedlings per pot. These plants were inoculated with an aqueous spore suspension of Zymoseptoria tritici either prior to or after fungicide treatments. After inoculation the plants were kept in 100% relative humidity (one day in a dark dew chamber followed by two to three days in a lighted dew chamber at 20° C.) to permit spores to germinate and infect the leaf. The plants were then transferred to a greenhouse set at 20° C. for disease to develop. When disease symptoms were fully expressed on the 1st leaves of untreated plants, infection levels were assessed on a scale of 0 to 100 percent disease severity. Percent disease control was calculated using the ratio of disease severity on treated plants relative to untreated plants. Example C: Evaluation of Fungicidal Activity: Wheat Glume Blotch (Leptosphaeria nodorum; Bayer Code […]) Wheat plants (variety Yuma) were grown from seed in a greenhouse in 50% mineral soil/50% soil-less Metro mix until the first leaf was fully emerged, with 7-10 seedlings per pot. These plants were inoculated with an aqueous spore suspension of Leptosphaeria nodorum 24 hr after fungicide treatments. After inoculation the plants were kept in 100% relative humidity (one day in a dark dew chamber followed by two days in a lighted dew chamber at 20° C.) to permit spores to germinate and infect the leaf. The plants were then transferred to a greenhouse set at 20° C. for disease to develop. Fungicide formulation, application and disease assessment followed the procedures as described in the Example A.

Venturia inaequalis = assay: Apple scab (VENTIN) disease control; details: 100 ppm, 1 Day Protectant
Protocol: All fungicides were evaluated using the aforementioned method for their activity vs. all target diseases, unless stated otherwise. Wheat leaf blotch and brown rust activity were also evaluated using track spray applications, in which case the fungicides were formulated as EC formulations, containing 0.1% Trycol 5941 in the spray solutions. Wheat plants (variety Yuma) were grown from seed in a greenhouse in 50% mineral soil/50% soil-less Metro mix until the first leaf was fully emerged, with 7-10 seedlings per pot. These plants were inoculated with an aqueous spore suspension of Zymoseptoria tritici either prior to or after fungicide treatments. After inoculation the plants were kept in 100% relative humidity (one day in a dark dew chamber followed by two to three days in a lighted dew chamber at 20° C.) to permit spores to germinate and infect the leaf. The plants were then transferred to a greenhouse set at 20° C. for disease to develop. When disease symptoms were fully expressed on the 1st leaves of untreated plants, infection levels were assessed on a scale of 0 to 100 percent disease severity. Percent disease control was calculated using the ratio of disease severity on treated plants relative to untreated plants. […] Seedlings with two expanding young leaves at the top (older leaves at bottom of the plants were trimmed) were used in the test. Plants were inoculated with a spore suspension of Venturia inaequalis 24 hr after fungicide treatment and kept in a 22° C. dew chamber with 100% relative humidity for 48 hr, and then moved to a greenhouse set at 20° C. for disease to develop. Fungicide formulation, application and disease assessment on the sprayed leaves followed the procedures as described in the Example A.

Pyricularia oryzae = details: 100 ppm; 1 Day Protectant; rice

Structure (SMILES) | PUCCRT 1DP, LV activity at 125.1 g/H (% Control rating) (Puccinia triticina) | PUCCRT 3DC, LV activity at 125.1 g/H (% Control rating) (Puccinia triticina) | LEPTNO disease control, 1DP (Leptosphaeria nodorum) | VENTIN disease control, 1DP (Venturia inaequalis) | PYRIOR disease control, 1DP (Pyricularia oryzae) | PUCCRT 1DP disease control rating, LV activity at 125.1 g/H (Puccinia triticina) | PUCCRT 3DC disease control rating, LV activity at 125.1 g/H (Puccinia triticina)
CCC(CC)[C@@H](Oc1ccccc1)[C@H](C)OC(=O)[C@H](C)NC(=O)c1nccc(OC)c1OC(C)=O [Cmpd 479] | A (> 80) | A (> 80) | A (> 80) | A (> 80) | A (> 80) |  | 
COc1ccnc(C(=O)N[C@@H](C)C(=O)O[C@@H](C)[C@H](Oc2ccccc2)c2ccccc2)c1OCOC(C)=O [Cmpd 500] | A (> 80) | A (> 80) | A (> 80) | B (≤ 80) | A (> 80) |  | 
COc1ccnc(C(=O)N[C@@H](C)C(=O)O[C@@H](C)[C@H](Oc2ccccc2)C2CCCC2)c1OCOC(C)=O [Cmpd 556] | A (> 80) | A (> 80) | A (> 80) | A (> 80) | A (> 80) |  | 
COc1ccnc(C(=O)N[C@@H](C)C(=O)O[C@@H](C)[C@H](Oc2cc(F)cc(Cl)c2)c2ccccc2)c1OC(C)=O [Cmpd 642] | A (> 80) | B (≤ 80) | A (> 80) | A (> 80) | A (> 80) |  | 
CCC(C)C(Oc1ccccc1)C(C)OC(=O)C(C)NC(=O)c1nccc(OC)c1OCOC(C)=O (centres unmarked) [Cmpd 692] |  |  | A (> 80) | B (≤ 80) | A (> 80) | A (> 80) | A (> 80)
C=CC(C)C(Oc1ccccc1)C(C)OC(=O)C(C)NC(=O)c1nccc(OC)c1OCOC(C)=O (centres unmarked) [Cmpd 694] |  |  | A (> 80) | B (≤ 80) | A (> 80) | A (> 80) | A (> 80)
CCC[C@@H](Oc1ccccc1)[C@H](C)OC(=O)[C@H](C)NC(=O)c1nccc(OC)c1OCOC(C)=O [Cmpd 699] |  |  | A (> 80) | B (≤ 80) | A (> 80) | A (> 80) | A (> 80)
